36 compounds from ChEMBL document CHEMBL1135245, “Highly potent inhibitors of TNF-alpha production. Part 1: Discovery of chemical leads” (2002) can be followed below.

For assay [1], the system named is Rattus norvegicus. The experiment in a line: Inhibition of Tumor necrosis factor alpha production after i.v. dose of 0.01-0.1 mg/10 mL/kg in 6-8 weeks old rats. The assay is classed as functional. The conditions noted are these: for ED50: Rattus norvegicus, iv, read-out: ID50 (the source's name).
The test system of assay [2] is Rattus norvegicus. The experiment in a line: Tested for inhibition of Tumor necrosis factor alpha production after intravenous dosage of 10 mg/kg to 6-8 weeks old rats. It counts as functional.
Assay [3] relates to Mus musculus. The experiment in a line: Tested for inhibition of Tumor necrosis factor alpha production after intravenous dosage of 10 mg/kg to 8 weeks old mice. It counts as functional.
The test system of assay [4] is Mus musculus. The experiment in a line: Tested for inhibition of Tumor necrosis factor alpha production in 8 weeks old mice after intravenous dosage of 0.01-0.1 mg/10 mL/kg. The following applies: for ED50: Mus musculus, iv, read-out: ID50 (the source's name). The assay is classed as functional.
In assay [5] the test system is Rattus norvegicus. As to the kind of experiment: Tested for inhibition of Tumor necrosis factor alpha production after intravenous dosage of 30 mg/kg to 6-8 weeks old rats pretreated with saline. The assay is classed as functional.
The test system of assay [6] is Rattus norvegicus. As to the kind of experiment: Tested for inhibition of Tumor necrosis factor alpha production (po) in rats. The conditions noted are these: read-out: ID50 (the source's name). The assay is classed as functional.
In assay [7] the test system is Mus musculus. The experiment in a line: Tested for inhibition of Tumor necrosis factor alpha production after intravenous dosage of 30 mg/kg to 8 weeks old mice. The assay is classed as functional.
For assay [8], the system named is Rattus norvegicus. As to the kind of experiment: Tested for inhibition of Tumor necrosis factor alpha production after intravenous dosage of 10 mg/kg to 6-8 weeks old rats.

The structures appear in SMILES notation.

In the case of `CCCCCCCC(=O)NC(COP(=O)([O-])[O-])c1ccccc1C.[Na+].[Na+]` (stereo not given), in assay [1], the ED50 is 2 mg/kg.

With `CCCCCCCC(=O)NC(COP(=O)([O-])[O-])c1cccc(C)c1.[Na+].[Na+]` (stereo not given), the ED50 in assay [1] worked out at 53 mg/kg. The inhibition in vivo is the relative decrease from the control value, in per cent. Take `CCCCCCCC(=O)NC(COP(=O)(O)O)c1ccc(Cl)cc1` (stereo not given): the inhibition in vivo at 10 mg/kg in assay [2] was -118%. For the compound `CCCCCCCC(=O)N[C@H](COP(=O)([O-])[O-])c1ccccc1.[Na+].[Na+]`, the ED50 in assay [1] was determined as 10 mg/kg. `CCCCCCCC(=O)NC(COP(=O)(O)O)c1ccc(C)cc1` (stereo not given): the inhibition in vivo at 10 mg/kg in assay [2] amounted to 44%. Consider `CCCCCCC(C)(C)C(=O)N[C@@H](COP(=O)(O)O)c1ccccc1`, for which, in assay [3], the inhibition in vivo at 10 mg/kg was 56%. Take `CCCCCCOC(=O)N[C@@H](COP(=O)([O-])[O-])c1ccccc1.[Na+].[Na+]`: the ED50 was 3.2 mg/kg in assay [1] and 1.1 mg/kg in assay [4]. With `CCCCCCCCCCC(=O)N[C@@H](COP(=O)(O)O)c1ccccc1`, the inhibition in vivo at 10 mg/kg in assay [3] worked out at 50%. As for `CC(=O)N[C@@H](COP(=O)(O)O)c1ccccc1`, in assay [3], the inhibition in vivo at 10 mg/kg was 28%. For the same compound, in assay [5], the inhibition in vivo at 30 mg/kg is 21%. In the case of `CCCCCC(=O)N[C@@H](COP(=O)([O-])[O-])c1ccccc1.[Na+].[Na+]`, the ED50 in assay [1] came to 50 mg/kg; in assay [4], 30 mg/kg. Consider `CCCCCCCC(=O)NC(COP(=O)([O-])[O-])c1cccc(OC(C)C)c1.[Na+].[Na+]` (stereo not given), for which, in assay [1], the ED50 amounted to 0.1 mg/kg.

`CCCC(=O)N[C@@H](COP(=O)(O)O)c1ccccc1`: in assay [3], the inhibition in vivo at 10 mg/kg amounted to 17%. Further, the inhibition in vivo at 30 mg/kg in assay [5] amounted to 37%. Consider `CCCCCCC(=O)N[C@@H](COP(=O)([O-])[O-])c1ccccc1.[Na+].[Na+]`, for which the ED50 in assay [1] was determined as 4.5 mg/kg; in assay [4], 2.8 mg/kg. For the compound `CCCCCCCC(=O)NC(COP(=O)(O)O)c1ccccc1Cl` (stereo not given), in assay [2], the inhibition in vivo at 10 mg/kg was found to be 46%. `CCCCCCCC(=O)N[C@@H](COP(=O)([O-])[O-])c1ccccc1.[Na+].[Na+]`: the ED50 in assay [1] worked out at 3 mg/kg; in assay [4] it was 0.8 mg/kg; in assay [6], 103 mg/kg. On to `CCCCCCCC(=O)NC(COP(=O)([O-])[O-])c1cccc(OCCC)c1.[Na+].[Na+]` (stereo not given), for which the ED50 in assay [1] was 0.7 mg/kg. The same measure, in the same setting: the same measure for `CCCCCCCC(=O)NC(COP(=O)([O-])[O-])c1cccc(Cl)c1.[Na+].[Na+]` (stereo not given): 5.2 mg/kg. In the case of `CCCCCCCC(=O)NC(COP(=O)(O)O)c1ccc(OC)cc1` (stereo not given), the inhibition in vivo at 10 mg/kg in assay [2] stood at 34%. Turning to `CCCCCCCC(=O)NC(COP(=O)([O-])[O-])c1cccc(OCC)c1.[Na+].[Na+]` (stereo not given), the ED50 in assay [1] is 0.2 mg/kg. In the case of `CCCCCCCC(=O)NC(COP(=O)([O-])[O-])c1cc(OC)cc(OC)c1.[Na+].[Na+]` (stereo not given), in assay [1], the ED50 is 3.8 mg/kg. On to `CCCCCCCC(=O)NC(COP(=O)([O-])[O-])c1cccc(OC2CCC2)c1.[Na+].[Na+]` (stereo not given), for which, in assay [1], the ED50 came out at 0.9 mg/kg. For `CCCCCCCC(=O)NC(COP(=O)([O-])[O-])c1cccc(SC(C)C)c1.[Na+].[Na+]` (stereo not given), the ED50 in assay [1] was determined as 0.21 mg/kg. As for `CCCCCCNC(=O)N[C@@H](COP(=O)(O)O)c1ccccc1`, the inhibition in vivo at 10 mg/kg in assay [3] is 58%. Take `CCCCCCCC(=O)NC(COP(=O)(O)O)c1cccc(OC2CCCC2)c1` (stereo not given): the inhibition in vivo at 10 mg/kg in assay [2] stood at 7%. Consider `CCCCCCCC(=O)NC(COP(=O)([O-])[O-])c1cccc(O)c1.[Na+].[Na+]` (stereo not given), for which the ED50 in assay [1] worked out at 1.4 mg/kg. The same measure, in the same setting: for `CCCCCCCC(=O)NC(COP(=O)([O-])[O-])c1cccc(SC)c1.[Na+].[Na+]` (stereo not given) the value was 0.56 mg/kg. In the case of `CCCCCCCC(=O)N[C@@H](COP(=O)([O-])[O-])c1cccc(OC)c1.[Na+].[Na+]`, the ED50 in assay [4] was 0.26 mg/kg. As for `CCCC(CCC)C(=O)N[C@@H](COP(=O)(O)O)c1ccccc1`, the inhibition in vivo at 30 mg/kg in assay [7] stood at 36%. With `O=C(CCCCc1ccccc1)N[C@@H](COP(=O)(O)O)c1ccccc1`, in assay [3], the inhibition in vivo at 10 mg/kg was 27%. As to `CCCCCCCC(=O)N[C@H](COP(=O)([O-])[O-])c1cccc(OC)c1.[Na+].[Na+]`, the ED50 in assay [1] is 1.6 mg/kg.

In the case of `CCCCCCCC(=O)NC(COP(=O)(O)O)c1ccccc1OC` (stereo not given), in assay [8], the inhibition in vivo at 10 mg/kg came out at 55%.

Turning to `O=C(N[C@@H](COP(=O)([O-])[O-])c1ccccc1)c1ccccc1.[Na+].[Na+]`, the ED50 in assay [3] (read-out: ID50 (the source's name)) turned out to be 32 mg/kg. Regarding `CCCCCCCC(=O)NC(COP(=O)([O-])[O-])c1cccc(OC)c1.[Na+].[Na+]` (stereo not given), the ED50 in assay [1] is 0.5 mg/kg. For `CCCCCCCC(=O)NC(COP(=O)([O-])[O-])c1cccc(OCC(C)C)c1.[Na+].[Na+]` (stereo not given), the ED50 in assay [1] amounted to 33 mg/kg. In the case of `CCCCCCC(C)C(=O)N[C@@H](COP(=O)([O-])[O-])c1ccccc1.[Na+].[Na+]` (single isomer, unassigned; more polar), the ID50 in assay [1] came out at 1.7 mg/kg; in assay [4], 2.4 mg/kg. For the compound `CCCCCCC(C)C(=O)N[C@@H](COP(=O)([O-])[O-])c1ccccc1.[Na+].[Na+]` (stereo in doubt), in assay [1], the ID50 stood at 8 mg/kg. The ED50 in assay [4] is 4.2 mg/kg.
